Laboratory results reported in PubChem BioAssay (NCI).
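How tested: cells in 96-well plates exposed to compound for 48 hours at five concentrations. GI50 is the concentration that inhibits growth by half. At the TGI there is no net growth.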

What was measured:
Assay in all cases: inhibition of tumour cell growth, NCI panel, 48 h
786-0 renal = test system: 786-0 renal
A498 renal = test system: A498 renal
A549 NSCLC = test system: A549 NSCLC
ACHN renal = test system: ACHN renal
BT-549 breast = test system: BT-549 breast
CAKI-1 renal = test system: CAKI-1 renal
CCRF-CEM leukemia = test system: CCRF-CEM leukemia
DU-145 prostate = test system: DU-145 prostate
EKVX NSCLC = test system: EKVX NSCLC
HCC-2998 colon = test system: HCC-2998 colon
HCT-116 colon = test system: HCT-116 colon
HCT-15 colon = test system: HCT-15 colon
HL-60(TB) leukemia = test system: HL-60(TB) leukemia
HOP-62 NSCLC = test system: HOP-62 NSCLC
HOP-92 NSCLC = test system: HOP-92 NSCLC
HS 578T breast = test system: HS 578T breast
HT29 colon = test system: HT29 colon
IGROV1 ovarian = test system: IGROV1 ovarian
K-562 leukemia = test system: K-562 leukemia
KM12 colon = test system: KM12 colon
LOX IMVI melanoma = test system: LOX IMVI melanoma
M14 melanoma = test system: M14 melanoma
MALME-3M melanoma = test system: MALME-3M melanoma
MDA-MB-231 breast = test system: MDA-MB-231 breast
MOLT-4 leukemia = test system: MOLT-4 leukemia
NCI-H226 lung = test system: NCI-H226 lung
NCI-H23 lung = test system: NCI-H23 lung
NCI-H460 lung = test system: NCI-H460 lung
NCI-H522 lung = test system: NCI-H522 lung
NCI/ADR-RES ovarian = test system: NCI/ADR-RES ovarian
OVCAR-3 ovarian = test system: OVCAR-3 ovarian
OVCAR-4 ovarian = test system: OVCAR-4 ovarian
OVCAR-5 ovarian = test system: OVCAR-5 ovarian
OVCAR-8 ovarian = test system: OVCAR-8 ovarian
PC-3 prostate = test system: PC-3 prostate
RPMI-8226 leukemia = test system: RPMI-8226 leukemia
SF-268 CNS = test system: SF-268 CNS
SF-539 CNS = test system: SF-539 CNS
SK-MEL-2 melanoma = test system: SK-MEL-2 melanoma
SK-MEL-28 melanoma = test system: SK-MEL-28 melanoma
SK-MEL-5 melanoma = test system: SK-MEL-5 melanoma
SK-OV-3 ovarian = test system: SK-OV-3 ovarian
SN12C renal = test system: SN12C renal
SNB-19 CNS = test system: SNB-19 CNS
SNB-75 CNS = test system: SNB-75 CNS
SR leukemia = test system: SR leukemia
SW-620 colon = test system: SW-620 colon
T-47D breast = test system: T-47D breast
TK-10 renal = test system: TK-10 renal
U251 CNS = test system: U251 CNS
UACC-257 melanoma = test system: UACC-257 melanoma
UACC-62 melanoma = test system: UACC-62 melanoma
UO-31 renal = test system: UO-31 renal

## CC(C)OC(=O)Nc1ccc(-c2nc(-c3cccc(OCCN4CCOCC4)c3)c(-c3ccnc(Br)c3)[nH]2)cc1
786-0 renal
  GI50: 1.24 µM
  TGI: 3.54 µM
A498 renal
  GI50: 1.23 µM
  TGI: 4.12 µM
A549 NSCLC
  GI50: 3.49 µM
  TGI: > 100 µM
ACHN renal
  GI50: 3.22 µM
  TGI: > 100 µM
BT-549 breast
  GI50: 2.86 µM
  TGI: > 100 µM
CAKI-1 renal
  GI50: 2.85 µM
  TGI: > 100 µM
CCRF-CEM leukemia
  GI50: 2.46 µM
  TGI: > 100 µM
DU-145 prostate
  GI50: 4.8 µM
  TGI: > 100 µM
EKVX NSCLC
  GI50: 2.39 µM
  TGI: 7.55 µM
HCC-2998 colon
  GI50: 3.1 µM
  TGI: > 100 µM
HCT-116 colon
  GI50: 2.96 µM
  TGI: > 100 µM
HCT-15 colon
  GI50: 1.3 µM
  TGI: 4.26 µM
HL-60(TB) leukemia
  GI50: 1.87 µM
  TGI: 4.59 µM
HOP-62 NSCLC
  GI50: 3.04 µM
  TGI: > 100 µM
HOP-92 NSCLC
  GI50: 2.45 µM
  TGI: 7.99 µM
HS 578T breast
  GI50: 0.461 µM
  TGI: 2.76 µM
HT29 colon
  GI50: 2.69 µM
  TGI: > 100 µM
IGROV1 ovarian
  GI50: 4.39 µM
  TGI: > 100 µM
K-562 leukemia
  GI50: 1.58 µM
  TGI: > 100 µM
KM12 colon
  GI50: 3.12 µM
  TGI: > 100 µM
LOX IMVI melanoma
  GI50: 1.56 µM
  TGI: 3.39 µM
M14 melanoma
  GI50: 2.78 µM
  TGI: 11.7 µM
MALME-3M melanoma
  GI50: 1.56 µM
  TGI: 3.39 µM
MDA-MB-231 breast
  GI50: 3.54 µM
  TGI: 56.7 µM
MOLT-4 leukemia
  GI50: 2.2 µM
  TGI: > 100 µM
NCI-H226 lung
  GI50: 3.75 µM
  TGI: > 100 µM
NCI-H23 lung
  GI50: 1.99 µM
  TGI: 4.72 µM
NCI-H460 lung
  GI50: 3.63 µM
  TGI: > 100 µM
NCI-H522 lung
  GI50: 3.86 µM
  TGI: > 100 µM
NCI/ADR-RES ovarian
  GI50: 4.3 µM
  TGI: > 100 µM
OVCAR-3 ovarian
  GI50: 4.91 µM
  TGI: > 100 µM
OVCAR-4 ovarian
  GI50: 4.79 µM
  TGI: > 100 µM
OVCAR-5 ovarian
  GI50: 4.97 µM
  TGI: > 100 µM
OVCAR-8 ovarian
  GI50: 4.32 µM
  TGI: > 100 µM
PC-3 prostate
  GI50: 2.96 µM
  TGI: > 100 µM
RPMI-8226 leukemia
  GI50: 0.549 µM
  TGI: 2.91 µM
SF-268 CNS
  GI50: 4.05 µM
  TGI: > 100 µM
SF-539 CNS
  GI50: 1.52 µM
  TGI: 5.46 µM
SK-MEL-2 melanoma
  GI50: 2.87 µM
  TGI: 9.13 µM
SK-MEL-28 melanoma
  GI50: 1.67 µM
  TGI: 4.16 µM
SK-MEL-5 melanoma
  GI50: 1.79 µM
  TGI: 3.27 µM
SK-OV-3 ovarian
  GI50: 2.49 µM
  TGI: 5.8 µM
SN12C renal
  GI50: 4.29 µM
  TGI: > 100 µM
SNB-19 CNS
  GI50: 3.22 µM
  TGI: > 100 µM
SNB-75 CNS
  GI50: 0.611 µM
  TGI: 5.17 µM
SR leukemia
  GI50: 2.4 µM
  TGI: > 100 µM
SW-620 colon
  GI50: 3.12 µM
  TGI: > 100 µM
T-47D breast
  GI50: 2.61 µM
  TGI: > 100 µM
TK-10 renal
  GI50: 6.15 µM
  TGI: > 100 µM
U251 CNS
  GI50: 2.01 µM
  TGI: > 100 µM
UACC-257 melanoma
  GI50: 2.72 µM
  TGI: 8.82 µM
UACC-62 melanoma
  GI50: 2.31 µM
  TGI: 6.28 µM
UO-31 renal
  GI50: 2.84 µM
  TGI: > 100 µM
